In PubChem BioAssay (NCI):
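Assay format: 96-well plates, 48-hour exposure. The concentration for 50% growth inhibition is given as GI50. At the TGI there is no net growth.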

Key:
Experiment in all cases: NCI anticancer screen, dose series, 48 h
NCI-H226 lung = system: NCI-H226 lung
OVCAR-4 ovarian = system: OVCAR-4 ovarian
K-562 leukemia = system: K-562 leukemia
MDA-MB-231 breast = system: MDA-MB-231 breast
SK-MEL-2 melanoma = system: SK-MEL-2 melanoma
NCI-H522 lung = system: NCI-H522 lung
COLO 205 colon = system: COLO 205 colon
LOX IMVI melanoma = system: LOX IMVI melanoma
TK-10 renal = system: TK-10 renal
786-0 renal = system: 786-0 renal
HOP-62 NSCLC = system: HOP-62 NSCLC
SK-OV-3 ovarian = system: SK-OV-3 ovarian
A498 renal = system: A498 renal
ACHN renal = system: ACHN renal
PC-3 prostate = system: PC-3 prostate
MCF7 breast = system: MCF7 breast
UACC-62 melanoma = system: UACC-62 melanoma
HCT-116 colon = system: HCT-116 colon
SN12C renal = system: SN12C renal
SF-295 CNS = system: SF-295 CNS
CAKI-1 renal = system: CAKI-1 renal
SW-620 colon = system: SW-620 colon
SNB-75 CNS = system: SNB-75 CNS
BT-549 breast = system: BT-549 breast
MALME-3M melanoma = system: MALME-3M melanoma
M14 melanoma = system: M14 melanoma
OVCAR-3 ovarian = system: OVCAR-3 ovarian
KM12 colon = system: KM12 colon
RPMI-8226 leukemia = system: RPMI-8226 leukemia
A549 NSCLC = system: A549 NSCLC
SR leukemia = system: SR leukemia
DU-145 prostate = system: DU-145 prostate
SF-539 CNS = system: SF-539 CNS
HCC-2998 colon = system: HCC-2998 colon
EKVX NSCLC = system: EKVX NSCLC
CCRF-CEM leukemia = system: CCRF-CEM leukemia
OVCAR-8 ovarian = system: OVCAR-8 ovarian
HS 578T breast = system: HS 578T breast
HOP-92 NSCLC = system: HOP-92 NSCLC
T-47D breast = system: T-47D breast
SK-MEL-28 melanoma = system: SK-MEL-28 melanoma
U251 CNS = system: U251 CNS
UO-31 renal = system: UO-31 renal
NCI-H460 lung = system: NCI-H460 lung
NCI-H23 lung = system: NCI-H23 lung
OVCAR-5 ovarian = system: OVCAR-5 ovarian
HT29 colon = system: HT29 colon
SK-MEL-5 melanoma = system: SK-MEL-5 melanoma
SNB-19 CNS = system: SNB-19 CNS
IGROV1 ovarian = system: IGROV1 ovarian
MDA-MB-435 = system: MDA-MB-435
SF-268 CNS = system: SF-268 CNS
HL-60(TB) leukemia = system: HL-60(TB) leukemia
NCI/ADR-RES ovarian = system: NCI/ADR-RES ovarian
HCT-15 colon = system: HCT-15 colon
UACC-257 melanoma = system: UACC-257 melanoma
MOLT-4 leukemia = system: MOLT-4 leukemia
RXF 393 renal = system: RXF 393 renal

## O=C1c2ccc3c4c5ccc(c24)C(=O)N1CCCOCCCCOCCCNCc1ccc(cc1)CNCCCOCCCCOCCCN(C3=O)C5=O
NCI-H226 lung
  GI50: 1770 nM
  TGI: 6580 nM
OVCAR-4 ovarian
  GI50: 567 nM
  TGI: 1180 nM
K-562 leukemia
  GI50: 987 nM
  TGI: 2400 nM
MDA-MB-231 breast
  GI50: 1070 nM
  TGI: 2980 nM
SK-MEL-2 melanoma
  GI50: 861 nM
  TGI: 1730 nM
NCI-H522 lung
  GI50: 854 nM
  TGI: 1790 nM
COLO 205 colon
  GI50: 531 nM
  TGI: 1260 nM
LOX IMVI melanoma
  GI50: 797 nM
  TGI: 1520 nM
TK-10 renal
  GI50: 1030 nM
  TGI: 2420 nM
786-0 renal
  GI50: 956 nM
  TGI: 2020 nM
HOP-62 NSCLC
  GI50: 1150 nM
  TGI: 3310 nM
SK-OV-3 ovarian
  GI50: 1180 nM
  TGI: 2660 nM
A498 renal
  GI50: 7890 nM
  TGI: 15000 nM
ACHN renal
  GI50: 859 nM
  TGI: 1570 nM
PC-3 prostate
  GI50: 904 nM
  TGI: 2760 nM
MCF7 breast
  GI50: 686 nM
  TGI: 1600 nM
UACC-62 melanoma
  GI50: 889 nM
  TGI: 1630 nM
HCT-116 colon
  GI50: 888 nM
  TGI: 1900 nM
SN12C renal
  GI50: 816 nM
  TGI: 1530 nM
SF-295 CNS
  GI50: 881 nM
  TGI: 1690 nM
CAKI-1 renal
  GI50: 834 nM
  TGI: 1710 nM
SW-620 colon
  GI50: 964 nM
  TGI: 2060 nM
SNB-75 CNS
  GI50: 724 nM
  TGI: 1480 nM
BT-549 breast
  GI50: 1620 nM
  TGI: 4870 nM
MALME-3M melanoma
  GI50: 628 nM
  TGI: 1300 nM
M14 melanoma
  GI50: 923 nM
  TGI: 1750 nM
OVCAR-3 ovarian
  GI50: 766 nM
  TGI: 1790 nM
KM12 colon
  GI50: 896 nM
  TGI: 2060 nM
RPMI-8226 leukemia
  GI50: 930 nM
  TGI: 2490 nM
A549 NSCLC
  GI50: 1010 nM
  TGI: 2070 nM
SR leukemia
  GI50: 621 nM
  TGI: 2620 nM
DU-145 prostate
  GI50: 886 nM
  TGI: 1730 nM
SF-539 CNS
  GI50: 871 nM
  TGI: 1640 nM
HCC-2998 colon
  GI50: 928 nM
  TGI: 1680 nM
EKVX NSCLC
  GI50: 824 nM
  TGI: 1630 nM
CCRF-CEM leukemia
  GI50: 889 nM
  TGI: 2840 nM
OVCAR-8 ovarian
  GI50: 1060 nM
  TGI: 2740 nM
HS 578T breast
  GI50: 1400 nM
  TGI: 5320 nM
HOP-92 NSCLC
  GI50: 782 nM
  TGI: 2080 nM
T-47D breast
  GI50: 997 nM
  TGI: 2280 nM
SK-MEL-28 melanoma
  GI50: 894 nM
  TGI: 1630 nM
U251 CNS
  GI50: 832 nM
  TGI: 1640 nM
UO-31 renal
  GI50: 1100 nM
  TGI: 5120 nM
NCI-H460 lung
  GI50: 972 nM
  TGI: 2000 nM
NCI-H23 lung
  GI50: 930 nM
  TGI: 1810 nM
OVCAR-5 ovarian
  GI50: 944 nM
  TGI: 1810 nM
HT29 colon
  GI50: 956 nM
  TGI: 2360 nM
SK-MEL-5 melanoma
  GI50: 855 nM
  TGI: 1550 nM
SNB-19 CNS
  GI50: 991 nM
  TGI: 2270 nM
IGROV1 ovarian
  GI50: 791 nM
  TGI: 1600 nM
MDA-MB-435
  GI50: 873 nM
  TGI: 1590 nM
SF-268 CNS
  GI50: 972 nM
  TGI: 2430 nM
HL-60(TB) leukemia
  GI50: 1010 nM
  TGI: 2030 nM
NCI/ADR-RES ovarian
  GI50: 6120 nM
  TGI: 17500 nM
HCT-15 colon
  GI50: 926 nM
  TGI: 1970 nM
UACC-257 melanoma
  GI50: 989 nM
  TGI: 1980 nM
MOLT-4 leukemia
  GI50: 981 nM
  TGI: 2620 nM
RXF 393 renal
  GI50: 764 nM
  TGI: 1570 nM
